In patent US12246095B2, “Oral dosage forms comprising a hops extract” (The New Zealand Institute for Plant and Food Research …, priority 2018, dated 2025):
In brackets after ≈: the same amount, converted by molar mass.

Tested on: Hutu80 enteroendocrine cells
Assay: Intracellular calcium in Hutu80 enteroendocrine cells as marker of Tas2R activation
Format: cell-based, human
Settings: for EC 50: Hutu-80, change in intracellular calcium at 5 min, doses 200 to 0.2 μM, Pacific Gem extract and purified acids
Method: The capacity for hops extracts to activate bitter taste receptors was assessed using intracellular calcium concentrations [Ca2+]i as a marker of both Tas2R activation and appetite suppressing hormone release. A screening assay was carried out to compare the effects of high alpha acid and low alpha acid hops extracts on intracellular calcium in Hutu80 enteroendocrine cells. The acid composition of the high alpha acid hops was alpha acid (13.9%), beta acid (7.4%). The acid composition of the low alpha acid hops was alpha acid (2.7%) beta acid (5.0%).
An EC50 dose response showing the relative change in intracellular calcium in Hutu80 enteroendocrine cells at 5 min following the addition of either a high alpha acid (Pacific Gem, 13.9%) or low alpha acid (Wai-iti, 2.7%) hops extract is shown in FIG. 1 and Table 1.
Activation of human TAS2Rs receptors was measured by monitoring variations in intracellular Ca^2+ concentrations ([Ca^2+]i) using a Flurostar Omega (BMG LABTECH, Germany) (excitation 485 nm/emission 520 nm).
Hutu-80 cells (Cat #HTB-40, ATCC Manassas, Virginia) were seeded in supplemented MEM (Cat #11095-080, Thermo Fisher, Walthan, Massachusetts) into Poly-Lysin-coated 96-well black wall, clear bottom plates (Cat #356640, Corning Inc. New York) at a density of 3.5×10^5 cells/ml, 100 μl/wel, cultured overnight and then loaded with the Ca^2+-sensitive fluorescent dye Fluo 4-AM (Cat #F14201, Thermo Fisher, Walthan, Massachusetts), following suppliers guidelines. […]
Compounds to test were prepared in DMSO (Cat #D8418, Sigma, St. Louis, Missouri) and transferred onto the cells immediately prior to commencing of the assay measurements. To obtain a baseline, fluorescence signals (excitation 485 nm/emission 520 nm) were measured immediately before the addition of compounds on the cells.
The change in intracellular calcium in Hutu80 enteroendocrine cells was measured at 5 min following the addition of purified hops acids at doses of 200, 63.2, 20, 6.32, 2, 0.632, 0.2 and 0 μM.

Row | EC 50 [µg/mL] | Structure (SMILES) | stimulating bitter taste receptor (Tas2R) signalling in human enteroendocrine cells (Hutu80, intracellular calcium)
1 | 1.153 (≈ 3.31 µM) | CC(C)=CCC1=C(O)C(O)(CC=C(C)C)C(=O)C(C(=O)C(C)C)=C1O (stereo not drawn) [Cohumulone, cohumulone] | activity at the lowest concentration
2 | 12.72 (≈ 31.8 µM) | CC(C)=CCC1=C(O)C(C(=O)C(C)C)=C(O)C(CC=C(C)C)(CC=C(C)C)C1=O [Colupulone, colupulone] | –
